Like-named read-outs stand apart in the source and are kept apart here.
How the values were obtained:
[1] = target: proteinase K (Parengyodontium album, UniProt P06873); assay: HPLC-based proteolysis assay with proteinase K; type: in vitro ADME
[2] = variable temperature CD, 20 mM sodium phosphate buffer, pH 7

Chain of proteinase K (P06873 106-384, species assumed): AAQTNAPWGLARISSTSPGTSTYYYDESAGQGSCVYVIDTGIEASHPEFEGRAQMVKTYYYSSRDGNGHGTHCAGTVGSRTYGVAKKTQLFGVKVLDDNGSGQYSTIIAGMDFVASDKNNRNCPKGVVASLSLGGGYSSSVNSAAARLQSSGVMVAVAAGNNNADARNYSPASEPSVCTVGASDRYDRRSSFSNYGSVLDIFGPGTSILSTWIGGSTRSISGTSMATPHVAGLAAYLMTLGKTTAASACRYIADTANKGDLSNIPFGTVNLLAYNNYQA

| SMILES | k, apparent proteolysis rate constant [1] | Tm (melting temperature) ([2]; 50 μM protein) | Tm (melting temperature) ([2]; 100 μM protein) |
| --- | --- | --- | --- |
| CC[C@H](C)[C@H](NC(=O)[C@H](Cc1c[nH]cn1)NC(=O)[C@H](CC(N)=O)NC(=O)[C@H](Cc1ccccc1)NC(=O)[C@H](Cc1ccc(O)cc1)NC(=O)[C@H](CCC(N)=O)NC(=O)[C@@H](NC(=O)[C@H](CCCNC(=N)N)NC(=O)CNC(=O)[C@H](CO)NC(=O)[C@H](CO)NC(=O)[C@H](CCCNC(=N)N)NC(=O)[C@H](CO)NC(=O)[C@H](CCSC)NC(=O)[C@H](CCCNC(=N)N)NC(=O)[C@H](CCCCN)NC(=O)[C@H](CCC(=O)O)NC(=O)[C@H](Cc1c[nH]c2ccccc12)NC(=O)CNC(=O)[C@@H]1CCCN1C(=O)[C@@H]1CCCN1C(=O)[C@H](CC(C)C)NC(=O)[C@@H](N)CCCCN)C(C)C)C(=O)N[C@H](C(=O)N[C@@H](CC(N)=O)C(=O)N[C@@H](C)C(=O)N[C@@H](CO)C(=O)N[C@@H](CCC(N)=O)C(=O)N[C@@H](Cc1ccccc1)C(=O)N[C@@H](CCC(=O)O)C(=O)N[C@@H](CCCNC(=N)N)C(=O)N1CCC[C@H]1C(=O)N[C@@H](CO)C(=O)NCC(=O)O)[C@@H](C)O [23Q] | 46.9 ±5.3 s^−1 × 10^3 | 39.4 ±0.2 °C |  |
| CC[C@H](C)[C@H](NC(=O)[C@H](Cc1c[nH]cn1)NC(=O)[C@H](CC(N)=O)NC(=O)[C@H](Cc1ccccc1)NC(=O)[C@H](Cc1ccc(O)cc1)NC(=O)[C@H](Cc1ccc(O)cc1)NC(=O)[C@@H](NC(=O)[C@H](CCCNC(=N)N)NC(=O)CNC(=O)[C@H](CO)NC(=O)[C@H](CO)NC(=O)[C@H](CCCNC(=N)N)NC(=O)[C@H](CO)NC(=O)[C@H](CCSC)NC(=O)[C@H](CCCNC(=N)N)NC(=O)[C@H](CCCCN)NC(=O)[C@H](CCC(=O)O)NC(=O)[C@H](Cc1c[nH]c2ccccc12)NC(=O)CNC(=O)[C@@H]1CCCN1C(=O)[C@@H]1CCCN1C(=O)[C@H](CC(C)C)NC(=O)[C@@H](N)CCCCN)C(C)C)C(=O)N[C@@H](CC(N)=O)C(=O)N[C@@H](CC(N)=O)C(=O)N[C@@H](C)C(=O)N[C@@H](CO)C(=O)N[C@@H](CCC(N)=O)C(=O)N[C@@H](Cc1ccccc1)C(=O)N[C@@H](CCC(=O)O)C(=O)N[C@@H](CCCNC(=N)N)C(=O)N1CCC[C@H]1C(=O)N[C@@H](CO)C(=O)NCC(=O)O [29N] |  | 50.0 ±0.1 °C |  |
| CC[C@H](C)[C@H](NC(=O)[C@H](Cc1c[nH]cn1)NC(=O)[C@H](CC(N)=O)NC(=O)[C@H](Cc1ccccc1)NC(=O)[C@H](Cc1ccc(O)cc1)NC(=O)[C@H](CC(N)=O)NC(=O)[C@@H](NC(=O)[C@H](CCCNC(=N)N)NC(=O)CNC(=O)[C@H](CO)NC(=O)[C@H](CO)NC(=O)[C@H](CCCNC(=N)N)NC(=O)[C@H](CO)NC(=O)[C@H](CCSC)NC(=O)[C@H](CCCNC(=N)N)NC(=O)[C@H](CCCCN)NC(=O)[C@H](CCC(=O)O)NC(=O)[C@H](Cc1c[nH]c2ccccc12)NC(=O)CNC(=O)[C@@H]1CCCN1C(=O)[C@@H]1CCCN1C(=O)[C@H](CC(C)C)NC(=O)[C@@H](N)CCCCN)C(C)C)C(=O)N[C@H](C(=O)N[C@@H](CC(N)=O)C(=O)N[C@@H](C)C(=O)N[C@@H](CO)C(=O)N[C@@H](CCC(N)=O)C(=O)N[C@@H](Cc1ccccc1)C(=O)N[C@@H](CCC(=O)O)C(=O)N[C@@H](CCCNC(=N)N)C(=O)N1CCC[C@H]1C(=O)N[C@@H](CO)C(=O)NCC(=O)O)[C@@H](C)O [23N] |  | 27.7 ±0.3 °C |  |
| CC[C@H](C)[C@H](NC(=O)[C@H](Cc1c[nH]cn1)NC(=O)[C@H](CC(N)=O)NC(=O)[C@H](Cc1ccccc1)NC(=O)[C@H](Cc1ccc(O)cc1)NC(=O)[C@H](Cc1ccc(O)cc1)NC(=O)[C@@H](NC(=O)[C@H](CCCNC(=N)N)NC(=O)CNC(=O)[C@H](CO)NC(=O)[C@H](CO)NC(=O)[C@H](CCCNC(=N)N)NC(=O)[C@H](CC(N)=O)NC(=O)[C@H](CCSC)NC(=O)[C@H](CCCNC(=N)N)NC(=O)[C@H](CCCCN)NC(=O)[C@H](CCC(=O)O)NC(=O)[C@H](Cc1c[nH]c2ccccc12)NC(=O)CNC(=O)[C@@H]1CCCN1C(=O)[C@@H]1CCCN1C(=O)[C@H](CC(C)C)NC(=O)[C@@H](N)CCCCN)C(C)C)C(=O)N[C@H](C(=O)N[C@@H](CC(N)=O)C(=O)N[C@@H](C)C(=O)N[C@@H](CO)C(=O)N[C@@H](CCC(N)=O)C(=O)N[C@@H](Cc1ccccc1)C(=O)N[C@@H](CCC(=O)O)C(=O)N[C@@H](CCCNC(=N)N)C(=O)N1CCC[C@H]1C(=O)N[C@@H](CO)C(=O)NCC(=O)O)[C@@H](C)O [16N] |  |  | 50.6 ±0.2 °C |
| CC[C@H](C)[C@H](NC(=O)[C@H](Cc1c[nH]cn1)NC(=O)[C@H](CC(N)=O)NC(=O)[C@H](Cc1ccccc1)NC(=O)[C@H](Cc1ccc(O)cc1)NC(=O)[C@H](Cc1ccc(O)cc1)NC(=O)[C@@H](NC(=O)[C@H](CCCNC(=N)N)NC(=O)CNC(=O)[C@H](CO)NC(=O)[C@H](CC(N)=O)NC(=O)[C@H](CCCNC(=N)N)NC(=O)[C@H](CO)NC(=O)[C@H](CCSC)NC(=O)[C@H](CCCNC(=N)N)NC(=O)[C@H](CCCCN)NC(=O)[C@H](CCC(=O)O)NC(=O)[C@H](Cc1c[nH]c2ccccc12)NC(=O)CNC(=O)[C@@H]1CCCN1C(=O)[C@@H]1CCCN1C(=O)[C@H](CC(C)C)NC(=O)[C@@H](N)CCCCN)C(C)C)C(=O)N[C@H](C(=O)N[C@@H](CC(N)=O)C(=O)N[C@@H](C)C(=O)N[C@@H](CO)C(=O)N[C@@H](CCC(N)=O)C(=O)N[C@@H](Cc1ccccc1)C(=O)N[C@@H](CCC(=O)O)C(=O)N[C@@H](CCCNC(=N)N)C(=O)N1CCC[C@H]1C(=O)N[C@@H](CO)C(=O)NCC(=O)O)[C@@H](C)O [18N] |  |  | 57.5 ±0.1 °C |
| CC[C@H](C)[C@H](NC(=O)[C@H](CC(N)=O)NC(=O)[C@H](CC(N)=O)NC(=O)[C@H](Cc1ccccc1)NC(=O)[C@H](Cc1ccc(O)cc1)NC(=O)[C@H](Cc1ccc(O)cc1)NC(=O)[C@@H](NC(=O)[C@H](CCCNC(=N)N)NC(=O)CNC(=O)[C@H](CO)NC(=O)[C@H](CO)NC(=O)[C@H](CCCNC(=N)N)NC(=O)[C@H](CO)NC(=O)[C@H](CCSC)NC(=O)[C@H](CCCNC(=N)N)NC(=O)[C@H](CCCCN)NC(=O)[C@H](CCC(=O)O)NC(=O)[C@H](Cc1c[nH]c2ccccc12)NC(=O)CNC(=O)[C@@H]1CCCN1C(=O)[C@@H]1CCCN1C(=O)[C@H](CC(C)C)NC(=O)[C@@H](N)CCCCN)C(C)C)C(=O)N[C@H](C(=O)N[C@@H](CC(N)=O)C(=O)N[C@@H](C)C(=O)N[C@@H](CO)C(=O)N[C@@H](CCC(N)=O)C(=O)N[C@@H](Cc1ccccc1)C(=O)N[C@@H](CCC(=O)O)C(=O)N[C@@H](CCCNC(=N)N)C(=O)N1CCC[C@H]1C(=O)N[C@@H](CO)C(=O)NCC(=O)O)[C@@H](C)O [27N] |  | 54.9 ±0.1 °C |  |
| CC[C@H](C)[C@H](NC(=O)[C@H](Cc1c[nH]cn1)NC(=O)[C@H](CC(N)=O)NC(=O)[C@H](Cc1ccccc1)NC(=O)[C@H](Cc1ccc(O)cc1)NC(=O)[C@H](Cc1ccc(O)cc1)NC(=O)[C@@H](NC(=O)[C@H](CCCNC(=N)N)NC(=O)CNC(=O)[C@H](CO)NC(=O)[C@H](CO)NC(=O)[C@H](CCCNC(=N)N)NC(=O)[C@H](CO)NC(=O)[C@H](CCSC)NC(=O)[C@H](CCCNC(=N)N)NC(=O)[C@H](CCCCN)NC(=O)[C@H](CCC(=O)O)NC(=O)[C@H](Cc1c[nH]c2ccccc12)NC(=O)CNC(=O)[C@@H]1CCCN1C(=O)[C@@H]1CCCN1C(=O)[C@H](CC(C)C)NC(=O)[C@@H](N)CCCCN)C(C)C)C(=O)N[C@H](C(=O)N[C@@H](CC(N)=O)C(=O)N[C@@H](C)C(=O)N[C@@H](CC(N)=O)C(=O)N[C@@H](CCC(N)=O)C(=O)N[C@@H](Cc1ccccc1)C(=O)N[C@@H](CCC(=O)O)C(=O)N[C@@H](CCCNC(=N)N)C(=O)N1CCC[C@H]1C(=O)N[C@@H](CO)C(=O)NCC(=O)O)[C@@H](C)O [32N] |  |  | 45.1 ±0.2 °C |

— paper PMC6330093 (Bioconjugate chemistry, 2017)
